How the values were obtained:
[1] = tested on: 4T1 spontaneous metastasis model; assay: In vivo antimetastatic activity, 4T1 spontaneous metastasis model; design: species or system mice; settings: Day 24
Carboxylesterase = settings: after intravenous administration; ref [51]; cited from earlier work
[2] = tested on: orthotopic 4T1 breast cancer model; assay: In vivo antitumor activity, orthotopic 4T1 breast cancer model; design: species or system BALB/c mice; settings: 10 mg/kg SN38 equiv., i.v., days 0, 3, 6

## CCc1c2c(nc3ccc(OC(=O)N4CCC(N5CCCCC5)CC4)cc13)-c1cc3c(c(=O)n1C2)COC(=O)[C@]3(O)CC [CPT-11, irinotecan]
[1]
  metastasizing tumor cells in liver and lung (H&E): clearly detected metastasizing tumor cells in liver and lung
[1]; ipsilateral inguinal lymph node
  metastatic burden in lymph nodes (H&E): did not significantly reduce the metastatic burden
Carboxylesterase
  enzymatic conversion rate to SN38: < 8%
[2]
  primary tumor growth: similarly rapid tumor growth compared with the saline-treated group

From PMC9222498 (Bioactive Materials, 2022)
